Values of other authors as cited in patent CN103893129A, “帕潘立酮缓释微球及其注射剂和该缓释微球的制备方法” (CHONGQING DAXIN PHARMACEUTICALS Co Ltd OF PKU INTERNATIONAL …, priority 2012, dated 2014).

Test system: schizophrenia (精神分裂症)

## Cc1nc2n(c(=O)c1CCN1CCC(c3noc4cc(F)ccc34)CC1)CCCC2O (centres unmarked) [帕潘立酮, 6,7,8,9-四氢-3-(2-(4-(6-氟-1,2-苯并异唑-3-基)-1-哌啶基)乙基)-9-羟基-2-甲基-4H-吡啶并[2,1-a]嘧啶-4-酮]
clinical
  efficacy on positive and negative symptoms of schizophrenia: 对精神分裂症阳性症状和阴性症状均有疗效
patients
  relapse rate of schizophrenia: 可有效延迟精神分裂症的复发率
